Data: US7928136B2, “Substituted 2-indolinone as PTK inhibitors containing a zinc binding moiety” (Curis, Inc., priority 2006, dated 2011)

Legend:
[1] = molecular target: T1, VEGFR2 (Homo sapiens, UniProt P35968); test: HTScan Receptor Kinase Assay, VEGFR2 tyrosine kinase; assay type: biochemical; settings: human VEGFR2 kinase domain, 200 μM ATP
T1 construct: GST (N); HIS6 (N); Thrombin cleavage site (N); purchased Cell Signaling Technologies; host or cells: baculovirus expression system
Description: (§1) Immediately transfer enzyme from −80° C. to ice. Allowed enzyme to thaw on ice. […] Returned immediately to ice. […] Incubated reaction plate at room temperature for 30 minutes. […] Added 100 μl/well primary antibody. Incubated at room temperature for 60 minutes. […] Added 100 μl/well diluted antibody. Incubated at room temperature for 30 minutes. […] Incubated at room temperature for 5 minutes.
(§2) The following TABLE B lists compounds representative of the invention and their activity in HDAC, VEGFR2 and PDGFR assays.

[2] = molecular target: T2, PDGFR-beta (Homo sapiens, UniProt P09619); test: HTScan Receptor Kinase Assay, PDGFR-beta tyrosine kinase; assay type: biochemical; settings: human PDGFR-beta kinase fragment, 200 μM ATP
T2 construct: GST (N); HIS6 (N); Thrombin cleavage site (N); purchased Cell Signaling Technologies; host or cells: baculovirus expression system
T2 sequence (P09619 561-1106): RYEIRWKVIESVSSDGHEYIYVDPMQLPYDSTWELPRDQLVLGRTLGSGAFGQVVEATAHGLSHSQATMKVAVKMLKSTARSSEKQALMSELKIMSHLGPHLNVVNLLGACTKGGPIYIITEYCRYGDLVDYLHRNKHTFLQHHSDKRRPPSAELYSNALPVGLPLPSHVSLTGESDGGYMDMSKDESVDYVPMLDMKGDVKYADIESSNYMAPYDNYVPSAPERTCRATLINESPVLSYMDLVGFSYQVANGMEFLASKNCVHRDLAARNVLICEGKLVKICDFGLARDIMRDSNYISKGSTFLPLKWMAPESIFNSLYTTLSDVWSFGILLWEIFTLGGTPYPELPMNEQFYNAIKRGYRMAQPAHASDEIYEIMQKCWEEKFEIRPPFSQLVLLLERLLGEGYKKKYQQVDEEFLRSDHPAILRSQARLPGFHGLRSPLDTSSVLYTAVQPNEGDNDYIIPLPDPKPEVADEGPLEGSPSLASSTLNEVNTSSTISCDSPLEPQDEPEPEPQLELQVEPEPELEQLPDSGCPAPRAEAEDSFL
Description: as §1, §2

[3] = tested on: HDAC; test: HDAC fluorimetric assay kit (AK-500, Biomol), HeLa nuclear extract; assay type: biochemical; settings: Fluor de Lys substrate
Description: HDAC inhibitors were screened using an HDAC fluorimetric assay kit (AK-500, Biomol, Plymouth Meeting, Pa.). […] Each assay was setup as follows: Defrosted all kit components and kept on ice until use. Diluted HeLa nuclear extract 1:29 in Assay Buffer (50 mM Tris/Cl, pH 8.0, 137 mM NaCl, 2.7 mM KCl, 1 mM MgCl2). Prepared dilutions of Trichostatin A (TSA, positive control) and tested compounds in assay buffer (5× of final concentration). Diluted Fluor de Lys™ Substrate in assay buffer to 100 uM (50 fold=2× final). Diluted Fluor de Lys™ developer concentrate 20-fold (e.g. 50 μl plus 950 μl Assay Buffer) in cold assay buffer. Second, diluted the 0.2 mM Trichostatin A 100-fold in the 1× Developer (e.g. 10 μl in 1 ml; final Trichostatin A concentration in the 1× Developer=2 μM; final concentration after addition to HDAC/Substrate reaction=1 μM). Added Assay buffer, diluted trichostatin A or test inhibitor to appropriate wells of the microtiter plate. Added diluted HeLa extract or other HDAC sample to all wells except for negative controls. Allowed diluted Fluor de Lys™ Substrate and the samples in the microtiter plate to equilibrate to assay temperature (e.g. 25 or 37° C. Initiated HDAC reactions by adding diluted substrate (25 μl) to each well and mixing thoroughly. Allowed HDAC reactions to proceed for 1 hour and then stopped them by addition of Fluor de Lys™ Developer ([…]). Incubated plate at room temperature (25° C.) for 10-15 min. Read samples in a microtiter-plate reading fluorimeter capable of excitation at a wavelength in the range 350-380 nm and detection of emitted light in the range 440-460 nm.
as §2

T1 sequence (P35968 807-1356 limits assumed): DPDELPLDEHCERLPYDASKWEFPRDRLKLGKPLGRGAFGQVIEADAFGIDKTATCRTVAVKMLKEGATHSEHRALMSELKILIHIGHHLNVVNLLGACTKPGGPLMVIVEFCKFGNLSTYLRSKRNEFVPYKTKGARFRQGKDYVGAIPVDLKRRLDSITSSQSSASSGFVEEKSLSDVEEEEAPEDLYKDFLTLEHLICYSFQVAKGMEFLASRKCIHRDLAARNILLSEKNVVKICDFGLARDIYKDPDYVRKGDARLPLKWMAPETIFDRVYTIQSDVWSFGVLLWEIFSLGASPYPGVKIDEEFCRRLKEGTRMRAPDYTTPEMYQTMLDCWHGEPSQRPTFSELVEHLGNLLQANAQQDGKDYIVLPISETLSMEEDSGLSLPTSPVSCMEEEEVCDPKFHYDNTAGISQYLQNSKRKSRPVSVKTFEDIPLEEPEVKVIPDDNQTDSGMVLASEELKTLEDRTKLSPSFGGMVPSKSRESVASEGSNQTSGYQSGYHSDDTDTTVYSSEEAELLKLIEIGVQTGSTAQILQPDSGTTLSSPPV

| SMILES | IC50 [1] [nM] | IC50 [2] [nM] | IC50 [3] [nM] | melting point |
| --- | --- | --- | --- | --- |
| Cc1[nH]c(/C=C2\C(=O)Nc3ccc(F)cc32)c(C)c1C(=O)NCCCC(=O)NO [Compound 3, N-(3-(hydroxycarbamoyl)propyl)-5-((Z)-(5-fluoro-2-oxoindolin-3-ylidene)methyl)-2,4-dimethyl-1H-pyrrole-3-carboxamide] | < 100 | < 100 | 1000 to 10000 | – |
| Cc1[nH]c(/C=C2\C(=O)Nc3ccc(F)cc32)c(C)c1C(=O)NCCCCCC(=O)N(C)O [Compound 9, (Z)-5-((5-fluoro-2-oxoindolin-3-ylidene)methyl)-N-(6-(hydroxy(methyl)amino)-6-oxohexyl)-2,4-dimethyl-1H-pyrrole-3-carboxamide] | < 100 | – | > 10000 | – |
| Cc1[nH]c(/C=C2\C(=O)Nc3ccc(F)cc32)c(C)c1C(=O)NCCOc1ccc(/C=C/C(=O)NO)cc1 [Compound 14, 5-((Z)-(5-fluoro-2-oxoindolin-3-ylidene)methyl)-N-(2-(4-((E)-3-(hydroxyamino)-3-oxoprop-1-enyl)phenoxy)ethyl)-2,4-dimethyl-1H-pyrrole-3-carboxamide] | < 100 | – | 100 to 1000 | – |

More lines, now with the values ahead:

| IC50 [1] [nM] | IC50 [2] [nM] | IC50 [3] [nM] | melting point | SMILES |
| --- | --- | --- | --- | --- |
| < 100 | 100 to 1000 | 100 to 1000 | – | Cc1[nH]c(/C=C2\C(=O)Nc3ccc(F)cc32)c(C)c1C(=O)NCCC(=O)NO [Compound 2, N-(2-(hydroxycarbamoyl)ethyl)-5-((Z)-(5-fluoro-2-oxoindolin-3-ylidene)methyl)-2,4-dimethyl-1H-pyrrole-3-carboxamide] |
| < 100 | < 100 | 100 to 1000 | 209.7 °C (dec.) | Cc1[nH]c(/C=C2\C(=O)Nc3ccc(F)cc32)c(C)c1C(=O)NCCCCCC(=O)NO [Compound 4, N-(5-(hydroxycarbamoyl)pentyl)-5-((Z)-(5-fluoro-2-oxoindolin-3-ylidene)methyl)-2,4-dimethyl-1H-pyrrole-3-carboxamide] |
| – | – | 100 to 1000 | – | Cc1[nH]c(/C=C2\C(=O)Nc3ccc(F)cc32)c(C)c1C(=O)NCCOc1ccc(C(=O)NO)cc1 [Compound 8, (Z)-5-((5-fluoro-2-oxoindolin-3-ylidene)methyl)-N-(2-(4-(hydroxycarbamoyl)phenoxy)ethyl)-2,4-dimethyl-1H-pyrrole-3-carboxamide] |
| < 100 | 100 to 1000 | < 100 | 221 °C (dec.) | Cc1[nH]c(/C=C2\C(=O)Nc3ccc(F)cc32)c(C)c1C(=O)NCCCCCCC(=O)NO [Compound 15, (Z)-5-((5-Fluoro-2-oxoindolin-3-ylidene)methyl)-N-(7-(hydroxyamino)-7-oxoheptyl)-2,4-dimethyl-1H-pyrrole-3-carboxamide] |
| < 100 | 100 to 1000 | < 100 | 213.7 °C (dec.) | Cc1[nH]c(/C=C2\C(=O)Nc3ccc(F)cc32)c(C)c1C(=O)NCCCCCCCC(=O)NO [Compound 16, (Z)-5-((5-Fluoro-2-oxoindolin-3-ylidene)methyl)-N-(8-(hydroxyamino)-8-oxooctyl)-2,4-dimethyl-1H-pyrrole-3-carboxamide] |
